Source: ChEMBL document CHEMBL3507680, “University of Dundee, Gates Library screen for HepG2 cell viability”

Experiment: Human HepG2 cell viability assay in 384 well format
Format: toxicity, cell-based
Set-up: dose 125 nL, time 70.5 hour; concentration not given beside the values
Details: HepG2 cells, read-out: Inhibition

SMILES	cytotoxicity at 70.5 h [%]
CN(C)C(=O)N1CC[C@@H](c2ccc3ccccc3c2)[C@H](O)C1	6.36
CN1CC2(CCN(C(=O)c3cn4cccnc4n3)CC2)CC1=O	39.7
CCN1CC2(CCC1=O)CCN(C(=O)c1cn3cccnc3n1)CC2	34.9
CCn1c(C2CCCN(C(=O)c3ccc[nH]3)C2)nn(CCN(C)C)c1=O (stereo not given)	4.96
O=C(NCC(F)(F)F)C(c1cccnc1)N1CCCC1 (stereo not given)	-5.02
CCCC(=O)Nc1ccc(CC(=O)N(CC)CC2CCCCO2)cc1 (stereo not given)	8.7
Cc1ccc(NCCCNC(=O)C2CCCN(Cc3ccco3)C2)nc1 (stereo not given)	7.19
Cc1nc2c(c(N3CCC(O)(CN4CCCC4)CC3)n1)CCNCC2	-3.88
CC1(C)CNC(=O)c2nc(-c3nnc(-c4ccccc4)[nH]3)[nH]c2C1	0.339
COc1ccc(C(CC(=O)NCc2n[nH]c(N)n2)c2ccccc2)cc1 (stereo not given)	-4.65
CCc1csc(CCNC(=O)CC2CCN(C(C)C)CC2)n1	23
CCn1c(CN(C)C)nnc1C1CCN(Cc2ccc(Cl)c(F)c2)CC1	-6.05
CN1CCC(Cc2noc(-c3cccc(OCC(N)=O)c3)n2)CC1	7.49
CNc1nc(N2CCN(Cc3ccsc3)C(CCO)C2)nc2c1CCC2 (stereo not given)	-1.63
CC(=O)N[C@H]1CN(S(=O)(=O)N(C)Cc2ccccc2)C[C@@H]1C1CC1	-2.36
CCn1cc(S(=O)(=O)NC2CCCN(CC3CCCCC3)C2)cn1 (stereo not given)	15.9
Cc1cc(C)n(C2CN(c3nc(N)nc4c3CCCC4)C2)n1	-16.5
c1ccc(CN2CCC(Nc3ncnc4c3CCNCC4)C2)cc1 (stereo not given)	-4.37
COc1ccc(-c2ccc(C(=O)N3CCC[C@@H]3CO)o2)cc1	-13.9
Cc1ccc(-n2c(COC(C)C)n[nH]c2=O)cc1	-2.37
Fc1ccccc1Cc1noc(CN2CCC(C3CCCCC3)C2)n1 (stereo not given)	34.7
CCOc1ccc(CN2CCN(CCOC)[C@@H]3CS(=O)(=O)C[C@@H]32)cc1	5.04
CC(C)(C)c1nc(CN2CCc3onc(-c4cccc(F)c4)c3C2)no1	-12.1
Cc1cc(NC(=O)Cn2ccc(-c3ccc4c(c3)OCO4)n2)n(C)n1	-13.2
COc1cc(F)c(C(=O)NCc2cc(C)on2)c(F)c1	-6.54
O=C(CCc1cc2n(n1)CCCNC2)N1CCSCC1	-9.8
CC(C)c1nc(N2CCC(N3CCCC(O)C3)CC2)c2cnn(C)c2n1 (stereo not given)	1.93
CC(C)c1nc(N2CCC(N3CCSCC3)CC2)c2cnn(C)c2n1	-2.43

SMILES	cytotoxicity at 70.5 h [%]
CSCCC1c2nc[nH]c2CCN1Cc1ccccc1C#N (stereo not given)	-6.75
Nc1ccncc1-n1cc(CCO)cn1	1.11
CCNC(=O)C1CCN(Cc2ccc(C(=O)Nc3nnc(C)s3)cc2)C1 (stereo not given)	26.3
CNc1nc(C(=O)N2CCn3nc(C(=O)OC)cc3C2)cs1	-4.4
Cc1nc(CCN)cc(N(C)Cc2nc3ccc(F)cc3[nH]2)n1	0.172
COCc1cc(N2CCN(c3ccc(Cl)cn3)CC2)n2nccc2n1	-0.783
O=C1OCCN1CC(=O)N1C[C@H]2CC[C@@H]1CN(C(=O)c1ccccn1)C2	-7.06
Cc1nc2c(c(N3CCCC(CO)C3)n1)CCN(Cc1ccco1)CC2 (stereo not given)	16.9
CSc1cccc(CN(C)C(=O)Cn2ncc(N(C)C)cc2=O)c1	-3.4
COCCC1(CO)CCCN(C(=O)c2cc(=O)[nH]c(=O)[nH]2)C1 (stereo not given)	-8.57
O=C(O)[C@]12CN(CC3CCC3)C[C@H]1CN(c1cnccn1)C2	-4.33
Cc1cc2occ(CC(=O)N3CCC(O)(CN(C)C)C3)c2cc1Cl (stereo not given)	-5.39
C[C@@H]1CN(CCC(=O)NCc2ccccc2Cl)C[C@@]1(O)C1CC1	-2.59
COc1ccc(Cn2cc(C(=O)N(C)CCN(C)C)nn2)cc1	-15
Cc1c(Cl)cc(C(=O)NCCc2ncnn2C)cc1Cl	-9.97
Cc1cc(C)c(C(=O)N2CCC3(CCCN(CC(C)(C)C)C3)C2)[nH]1 (stereo not given)	15.2
CN(C)C(=O)CN1C[C@@H]2CC[C@H](C1)N(C/C=C/c1ccc(F)cc1)C2	-0.0436
Cc1ccc(-c2cccc(N3CCC(NC4CCOCC4)CC3)c2)cc1	-2.04
N[C@H]1CCCN(S(=O)(=O)c2ccc(C(=O)NCC(F)F)cc2)C1	25.2
Cc1c[nH]c(C(=O)N2CCn3nc(C(=O)NC4CC4)cc3C2)n1	24.5
CSc1nccc(NCc2cc3n(n2)CCCN(C(=O)C2CCC2)C3)n1	22.4
O=C(CN1CCOC1=O)N1CCc2nnc(-c3ccccc3)n2CC1	11.7
CC(C)C1CN(C(=O)c2ccc(Cl)cn2)CCCN1CC1CC1 (stereo not given)	-6.77
CNS(=O)(=O)CCNc1cc(C)nc2cc(C)nn12	-2.52
COCCCN1C(=O)CC[C@H]2CN(c3nc4ccccc4s3)CC[C@H]21	-3.23
Cc1ccc(N2CCN(C(=O)CCc3n[nH]c(C)n3)CC2=O)cc1	-8.56
CNC(=O)c1ccc(CN(C(C)C)C(C)C)o1	-4.83
